# According to paper PMC12135066, “Design and Preclinical Evaluation of Novel uPAR-Targeting Radiopeptides Modified with an Albumin-Binding Entity” (Molecular Pharmaceutics, 2025):
# Key:
# [1] = Stability of the radiopeptides in human blood plasma
# [2] = tested on: mouse serum albumin (MSA); experiment: Albumin-binding properties in mouse blood plasma (ultrafiltration assay); details: ultrafiltration (Amicon, 10 kDa), mouse blood plasma dilutions in PBS pH 7.4, [MSA]-to-[radiopeptide] 0.01–12500, 0.006 nmol, 37 °C 30 min, γ-counter; inverse ratio of B50, [177Lu]Lu-uPAR-01 set as 1.00; average curve of 3 experiments
# Experimental: The relative albumin-binding affinities of the radiopeptides in mouse and human blood plasma were determined using an ultrafiltration assay with Amicon centrifugal filters (cutoff of 10 kDa; Merck Millipore), as previously reported (Supporting Information). A fixed amount of the respective radiopeptide (15 μL, ∼300 kBq, 0.006 nmol) was added to a defined volume (150 μL) of mouse and human blood plasma dilutions to obtain [mouse serum albumin (MSA)]-to-[radiopeptide] and [human serum albumin (HSA)]-to-[radiopeptide] molar concentration ratios of 0.01–12,500 and 0.01–20,000, respectively. The data were analyzed using a semilogarithmic Hill plot with the maximum binding set as 100% (GraphPad Prism software, version 8.3.1).
# Determination of the Albumin-Binding Properties
# Purpose: The radiopeptides were investigated with regard to their albumin-binding capabilities in vitro
# as a measure to predict blood retention in vivo.
# Methods: The relative albumin-binding affinity of the radiopeptides in mouse blood plasma (Rockland
# Immunochemicals, Inc., U.S.A.) and human blood plasma (Stiftung Blutspende SRK Aargau-
# Solothurn, Switzerland) were determined using an ultrafiltration method. The amount of mouse serum
# albumin (MSA) and human serum albumin (HSA) in mouse and human blood plasma was defined as
# 550 μM and 800 μM, respectively, based on measurements using a dry chemistry analyzer (DRI-CHEM
# 4000i, FUJIFILM, Japan). A fixed amount of radiopeptide (50 MBq/nmol, ~300 kBq, 15 μL, 0.006
# nmol) was added to a defined volume (150 μL) of mouse and human blood plasma and various dilutions
# thereof in PBS pH 7.4, resulting in defined [MSA]-to-[radiopeptide] or [HSA]-to-[radiopeptide] molar
# concentration ratios ranging from 0.01 ‒12500 and 0.01‒20000, respectively, followed by incubation of
# the samples at 37 °C for 30 min. Ice-cold PBS (150 µL, pH 7.4) was added before loading the blood
# plasma samples on Amicon centrifugal filters (cut -off of 10 kDa; Merck Millipore) followed by
# centrifugation (14000 rcf, 30 min, 4 °C) to allow the separation of the plasma protein -bound from the
# plasma-unbound (free) fractions of each sample. The inserts of the filter devices were inverted and centrifuged at 200 rcf for 3 min to recover the protein -bound radiopeptide. The activity in the filtrate
# and filter unit was measured in a γ-counter (1480 Wizard, PerkinElmer) and the counts were combined
# assuming that the fraction retained in the filter membrane was not bound to proteins. The protein -bound
# fraction was expressed as percentage of the whole activity (i.e. plasma protein -bound activity, activity
# measured in the filtrate and activity measured in the filter (set as 100%) ). The data were analyzed using
# a semi-logarithmic plot assuming a maximum binding of 100%. The Hill equation was fitted to the data
# points and the half -maximum binding ( B50) based on the average curve obtained from three independent
# experiments (GraphPad Prism software, version 8.3 .1). The relative albumin-binding affinit ies of the
# reference compound, whose relative binding affinity was set as 1.0. The results were presented as the
# B50 value obtained from the average curve from 3 independent experiments.
# [3] = Biodistribution studies in HEK-uPAR xenograft-bearing nude mice; details: female, mouse, 0.5 nmol, total radioactivity, 5 MBq, 0.5 nmol, decay-corrected, average ± SD, n=3 animals; for tissue uptake at 4 h: 4 h p.i.; for tissue uptake at 24 h: 24 h p.i.
# Experimental: All applicable international, national, and/or institutional guidelines for the care and use of laboratory animals were followed, and the herein reported experiments were carried out according to the guidelines of the Swiss Regulations for Animal Welfare. The preclinical studies were ethically approved by the Cantonal Committee of Animal Experimentation and permitted by the responsible cantonal authorities (License No. 75721). Five-week-old female CD1/nude (Crl:CD1-Foxn ^ nu ) and female immunocompetent FVB (FVB/NCrl) mice were obtained from Charles River Laboratories (Sulzfeld, Germany). All mice were acclimatized for at least 7 days, receiving standard rodent chow ad libitum before being included in the reported studies. The CD1/nude mice were subcutaneously inoculated with HEK-uPAR cells (7 × 10^6 cells in 100 μL PBS) on the right shoulder. […] Typically, it took 3–11 weeks to reach xenograft volumes of 40–600 mm^3 at the time of testing the tissue distribution of the radiopeptides. The immunocompetent FVB mice were used for testing the in vivo stability of the radiopeptides.
# The mice were injected with the radiopeptides (5 MBq, 0.5 nmol, 100 μL) in saline containing 0.05% BSA and sacrificed at 4 and 24 h after injection of the radiopeptides. Selected tissues and organs were collected, weighed, and measured with the γ-counter (1480 Wizard, PerkinElmer). […] A p-value of <0.05 was considered a statistically significant difference (GraphPad Prism software, version 8.3.1).
# Decay-corrected data is shown as average ± SD of n = 3 animals of % injected activity per gram (IA/g) tissue.
# [4] = n-Octanol/PBS distribution coefficients (logD values); details: n-octanol/PBS pH 7.4, pH 7.4
# [5] = Stability of the radiopeptides in mouse blood plasma
# Experimental: The radiopeptides (50 MBq/nmol) stabilized with L-ascorbic acid were diluted in mouse and human blood plasma and incubated at 37 °C. Aliquots were taken after 1, 4, and 24 h and analyzed using reversed-phase thin-layer chromatography (TLC) (Supporting Information).
# aProduct peak expressed as percentage of the sum of integrated peak areas of the entire chromatogram relative to
# the value obtained immediately after labeling (set as 100%), average ± standard deviation (SD) (n=3).
# Stability of the Radiopeptides in Mouse and Human Blood Plasma
# Purpose: The stability of the radiopeptides was assessed in mouse and human blood plasma as an
# indication for their in vivo stability.
# Methods: The radiopeptides (50 MBq/nmol) stabilized with L-ascorbic acid were diluted in mouse
# blood plasma (Lot: 32321, Rockland Immunochemicals Inc., U.S.A.) or in human blood plasma
# (Stiftung Blutspende SRK Aargau -Solothurn, Switzerland) at a concentration of 10 MBq/200 µL and
# incubated at 37 °C over a 24 h time period. Control samples were prepared by diluting the radiopeptides
# in saline at the same activity concentration. Aliquots of each dilution were taken after 1 h, 4 h, and 24 h
# (2 µL, ~100 kBq) and investigated employing thin layer chromatography (TLC) methods on reversed-
# phase TLC plates (MERCK Analytical Chromatography, TLC Silica gel 60 RP -18 F254s) as stationary
# phase and a 3/7 (v/v) mixture of acetonitrile /citrate buffer (0.1 M, pH 5.5) as mobile phase. A dilution
# of [177Lu]LuCl3/HCl 0.04 M (10 MBq/200 µL) was added on each TLC plate. The developed and dried
# TLC plates were exposed to a phosphor screen (Super resolution screen PSR10450013, PerkinElmer)
# for 1 min. The screen was read with a Cyclone Plus phosphor imager (PerkinElmer) and the peak
# quantification was performed using OptiQuant Software (version 5.0).
# [6] = Radiolytic stability of the radiopeptides in saline with L-ascorbic acid; details: 50 MBq/nmol in saline, 150 MBq/300 µL, L-ascorbic acid (3 mg, 20 µL) and NaOAc (0.5 M, 30 µL), HPLC, product peak relative to t=0 (100%), average ± SD, n=3
# Experimental: The radiolytic stability of the radiopeptides (50 MBq/nmol) in saline (150 MBq/300 μL) was assessed in the absence and presence of L-ascorbic acid (3 mg added in a volume of 20 μL). After an incubation period of 1, 4, and 24 h, aliquots of the solutions were analyzed using HPLC. The integrated peak area representing the intact radiopeptide was expressed as the percentage of the sum of all peaks of the chromatogram. The final amount of intact radiopeptide was expressed as the percentage of the product peak obtained at t = 0, which was set as 100% (Supporting Information).
# The radiolytic stability of [177Lu]Lu-DOTA-AE105 and the new 177Lu-labeled uPAR-targeting
# radiopeptides (50 MBq/nmol) was assessed in vitro in the formulated solution . The radiopeptide s were
# diluted in saline to obtain an activity concentration of 150 MBq in 300 µL in the presence of L-ascorbic
# acid (3 mg, 20 µL) and NaOAc (0.5 M, 30 µL) to compensate for the acidic pH. Aliquots of the dilutions
# were analyzed using HPLC after incubation periods of 1 h, 4 h and 24 h . The integrated peak area
# measured for the intact radioligand peak was expressed as the percentage of the sum of the integrated
# peak areas of each peak present in the chromatogram. The final amount of intact radiopeptide at t = 1 h,
# 4 h and 24 h was expressed by correcting the obtained percentage of the product peak to this peak
# obtained at t = 0, which was set as 100%.
# [7] = tested on: human serum albumin (HSA); experiment: Albumin-binding properties in human blood plasma (ultrafiltration assay); details: ultrafiltration (Amicon, 10 kDa), human blood plasma dilutions in PBS pH 7.4, [HSA]-to-[radiopeptide] 0.01–20000, 0.006 nmol, 37 °C 30 min, γ-counter; inverse ratio of B50, [177Lu]Lu-uPAR-01 set as 1.00; average curve of 3 experiments
# human uPAR = target: T1, human uPAR (Homo sapiens, UniProt Q03405); experiment: uPAR-binding affinity (KD values), saturation experiments with HEK-uPAR cells; details: saturation binding on HEK-uPAR cells, on ice (4 °C) 1 h, 1–1600 nM radiopeptide, ± AE105 40 µM; γ-counter; nonlinear regression; average ± SD, n=3
# T1 construct: host or cells: HEK cells (HEK-uPAR)
# Method in brief: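 HEK-uPAR cells incubated 1 h at 4 °C (on ice) with radiopeptide at 1–1600 nM final, with or without 40 μM AE105 as blocker. Cell-bound activity counted in a γ-counter after NaOH lysis; KD from nonlinear regression of specific binding (total minus unspecific), mean ± SD of n = 3.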
# [8] = CD1/nude (Crl:CD1-Foxn nu), HEK-uPAR xenograft, HEK-uPAR xgft
# [9] = CD1/nude (Crl:CD1-Foxn nu), liver, Liver
# [10] = CD1/nude, blood, 5 MBq (0.5 nmol)
# [11] = CD1/nude, bone, 5 MBq (0.5 nmol)
# [12] = CD1/nude, brain, 5 MBq (0.5 nmol)
# [13] = CD1/nude, heart, 5 MBq (0.5 nmol)
# [14] = CD1/nude, intestines, 5 MBq (0.5 nmol)
# [15] = CD1/nude, kidneys, 5 MBq (0.5 nmol)
# [16] = CD1/nude, liver, 5 MBq (0.5 nmol)
# [17] = CD1/nude, lung, 5 MBq (0.5 nmol)
# [18] = CD1/nude, muscle, 5 MBq (0.5 nmol)
# [19] = CD1/nude, pancreas, 5 MBq (0.5 nmol)
# [20] = CD1/nude, salivary glands, 5 MBq (0.5 nmol)
# [21] = CD1/nude, spleen, 5 MBq (0.5 nmol)
# [22] = CD1/nude, stomach, 5 MBq (0.5 nmol)
# T1 sequence (Q03405 23-335): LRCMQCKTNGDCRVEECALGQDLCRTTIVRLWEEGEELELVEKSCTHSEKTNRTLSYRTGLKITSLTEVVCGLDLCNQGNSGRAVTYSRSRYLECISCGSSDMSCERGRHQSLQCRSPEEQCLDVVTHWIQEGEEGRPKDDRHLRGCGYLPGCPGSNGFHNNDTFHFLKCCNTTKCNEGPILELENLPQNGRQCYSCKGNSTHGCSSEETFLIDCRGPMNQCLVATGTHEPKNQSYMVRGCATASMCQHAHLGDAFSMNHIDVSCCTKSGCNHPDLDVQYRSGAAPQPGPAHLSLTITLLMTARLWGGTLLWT
smiles,measurement,setting,value
"CC(C)C[C@H](NC(=O)[C@H](Cc1ccc(O)cc1)NC(=O)[C@@H](CCCNC(=N)N)NC(=O)[C@@H](CO)NC(=O)[C@H](Cc1ccccc1)NC(=O)[C@H](CC1CCCCC1)NC(=O)[C@H](CC(=O)O)NC(=O)CN1CCN(CC(=O)O)CCN(CC(=O)O)CCN(CC(=O)O)CC1)C(=O)N[C@@H](Cc1c[nH]c2ccccc12)C(=O)N[C@@H](CO)C(N)=O [[^177Lu]Lu-DOTA-AE105, metal not drawn, reference compound]",Intact radiopeptide in human blood plasma [%],"[1]; 24 h, human blood plasma, 10 MBq/200 µL, 50 MBq/nmol, stabilized with L-ascorbic acid, 37 °C, reversed-phase TLC, phosphor imager, relative to t=0 (100%), average ± SD, n=3",~4.5%
same,"remaining at 1 h, 10 MBq/200 µL","[1]; human, blood plasma",71 ± 3%
same,"remaining at 24 h, 10 MBq/200 µL","[1]; human, blood plasma",4.5 ± 1.2%
same,"remaining at 4 h, 10 MBq/200 µL","[1]; human, human blood plasma",~13%
same,"Relative albumin-binding affinity, mouse blood plasma",[2],0.02
same,tissue uptake at 4 h,[3]; [8],< 1 %ID/g
same,tissue uptake at 24 h,[3]; [8],0.4 ± 0.19 %ID/g
same,tissue uptake at 4 h,[3]; [9],< 0.2 %ID/g
same,tissue uptake at 24 h,[3]; [9],< 0.2 %ID/g
same,tissue uptake at 4 h,"[3]; CD1/nude (Crl:CD1-Foxn nu), whole blood, Blood",< 0.1 %ID/g
same,tissue uptake at 4 h,[3]; [10],0.08 ± 0.01 %ID/g
same,tissue uptake at 24 h,[3]; [10],< 0.05 %ID/g
same,tissue uptake at 4 h,[3]; [11],0.38 ± 0.03 %ID/g
same,tissue uptake at 24 h,[3]; [11],0.84 ± 0.1 %ID/g
same,tissue uptake at 4 h,[3]; [12],< 0.05 %ID/g
same,tissue uptake at 24 h,[3]; [12],< 0.05 %ID/g
same,tissue uptake at 4 h,[3]; [13],0.06 ± 0.01 %ID/g
same,tissue uptake at 24 h,[3]; [13],< 0.05 %ID/g
same,tissue uptake at 4 h,[3]; [14],0.31 ± 0.03 %ID/g
same,tissue uptake at 24 h,[3]; [14],0.18 ± 0.02 %ID/g
same,tissue uptake at 4 h,[3]; [15],1.5 ± 0.1 %ID/g
same,tissue uptake at 24 h,[3]; [15],1.3 ± 0.1 %ID/g
same,tissue uptake at 4 h,[3]; [16],0.1 ± 0.01 %ID/g
same,tissue uptake at 24 h,[3]; [16],0.17 ± 0.01 %ID/g
same,tissue uptake at 4 h,[3]; [17],0.3 ± 0.02 %ID/g
same,tissue uptake at 24 h,[3]; [17],0.21 ± 0.01 %ID/g
same,tissue uptake at 4 h,[3]; [18],< 0.05 %ID/g
same,tissue uptake at 24 h,[3]; [18],< 0.05 %ID/g
same,tissue uptake at 4 h,[3]; [19],0.06 ± 0.01 %ID/g
same,tissue uptake at 24 h,[3]; [19],0.06 ± 0.01 %ID/g
same,tissue uptake at 4 h,[3]; [20],0.09 ± 0.01 %ID/g
same,tissue uptake at 24 h,[3]; [20],0.09 ± 0.01 %ID/g
same,tissue uptake at 4 h,[3]; [21],0.18 ± 0.02 %ID/g
same,tissue uptake at 24 h,[3]; [21],0.23 ± 0.04 %ID/g
same,tissue uptake at 4 h,[3]; [22],0.15 ± 0.03 %ID/g
same,tissue uptake at 24 h,[3]; [22],0.17 ± 0.03 %ID/g
same,logD,[4],-1.38 ± 0.18
same,Intact radiopeptide in mouse blood plasma [%],"[5]; 24 h, mouse blood plasma, 10 MBq/200 µL, 50 MBq/nmol, stabilized with L-ascorbic acid, 37 °C, reversed-phase TLC, phosphor imager, relative to t=0 (100%), average ± SD, n=3",~4.5%
same,"remaining at 1 h, 10 MBq/200 µL","[5]; mouse, blood plasma",61 ± 6%
same,"remaining at 24 h, 10 MBq/200 µL","[5]; mouse, blood plasma",4.6 ± 2.2%
same,"remaining at 4 h, 10 MBq/200 µL","[5]; mouse, mouse blood plasma",~13%
same,"radiolytic stability, % intact radiopeptide",[6]; 1 h,98 ± 2%
same,"radiolytic stability, % intact radiopeptide",[6]; 4 h,98 ± 1%
same,"Relative albumin-binding affinity, human blood plasma",[7],0.01
same,Kd,human uPAR,20 ± 1 nM
